Results: US11746087B1, “C4-carboxylic acid-substituted tryptamine derivatives and methods of using” (priority 2022, dated 2023)
Where two headings read alike, the source gives them in different places.

How the values were obtained:
[1] = Mouse PK study (IV and PO), plasma parent compound and psilocin by LC-MS/MS; format: in vivo; settings: male, C57Bl/6, mouse, plasma; for AUC(0-t) / Cmax / Tmax / AUC(0-inf) / half-life / MRT inf: po, C(I) in plasma; for AUC(0-t): read-out: AUC0-tlast; for Cmax: read-out: Cmax; for Tmax: read-out: tmax; for AUC(0-inf): read-out: AUC0-inf; for half-life: read-out: Apparent t1/2 (converted); for MRT inf: read-out: MRT0-inf
Text: Briefly, the procedure was as follows. […] 19, 2022.

ADRA1A = target: T1, ADRA1A (Homo sapiens, UniProt P35348); experiment: Calcium secondary messenger assay, antagonist mode; format: cell-based
T1 sequence (P35348 1-466): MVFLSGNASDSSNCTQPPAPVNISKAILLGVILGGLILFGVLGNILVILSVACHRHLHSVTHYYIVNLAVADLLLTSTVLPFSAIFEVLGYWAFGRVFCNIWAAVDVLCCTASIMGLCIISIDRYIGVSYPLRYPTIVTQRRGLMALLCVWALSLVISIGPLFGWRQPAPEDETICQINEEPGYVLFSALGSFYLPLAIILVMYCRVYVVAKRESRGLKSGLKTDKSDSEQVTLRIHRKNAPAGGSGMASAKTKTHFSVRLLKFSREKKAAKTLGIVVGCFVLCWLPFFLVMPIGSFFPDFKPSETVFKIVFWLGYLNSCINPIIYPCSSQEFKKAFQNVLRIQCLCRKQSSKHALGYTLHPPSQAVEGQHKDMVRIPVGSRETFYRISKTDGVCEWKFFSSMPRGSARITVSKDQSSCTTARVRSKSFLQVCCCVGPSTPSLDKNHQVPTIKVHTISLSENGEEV

CHRM1 = target: T2, CHRM1 (Homo sapiens, UniProt P11229); experiment: cell-based; settings: CHRM1; GPCR; ANT (antagonist)
T2 sequence (P11229 1-460): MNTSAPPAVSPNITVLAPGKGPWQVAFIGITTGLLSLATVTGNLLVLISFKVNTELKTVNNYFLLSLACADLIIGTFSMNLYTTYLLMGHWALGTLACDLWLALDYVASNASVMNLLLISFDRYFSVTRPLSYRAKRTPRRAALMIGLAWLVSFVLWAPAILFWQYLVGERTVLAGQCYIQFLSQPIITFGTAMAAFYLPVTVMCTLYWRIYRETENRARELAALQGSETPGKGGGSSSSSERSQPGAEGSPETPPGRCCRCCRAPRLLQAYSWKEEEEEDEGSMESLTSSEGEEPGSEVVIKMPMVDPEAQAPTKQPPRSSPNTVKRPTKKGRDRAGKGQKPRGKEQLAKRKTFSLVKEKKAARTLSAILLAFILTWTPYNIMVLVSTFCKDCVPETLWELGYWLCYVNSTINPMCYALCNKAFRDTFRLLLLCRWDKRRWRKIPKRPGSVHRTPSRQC

CNR1 = CNR1 (Homo sapiens, UniProt P21554); experiment: EFC-based cAMP secondary messenger assay, agonist mode; format: cell-based
DRD2S = DRD2S (Homo sapiens, UniProt P14416); experiment: EFC-based cAMP secondary messenger assay, antagonist mode; format: cell-based
HTR1A (5-HT1A) [2] = target: T3, HTR1A (5-HT1A) (Homo sapiens, UniProt P08908); experiment: EFC-based cAMP secondary messenger assay, agonist mode; format: cell-based
T3 sequence (P08908 1-422): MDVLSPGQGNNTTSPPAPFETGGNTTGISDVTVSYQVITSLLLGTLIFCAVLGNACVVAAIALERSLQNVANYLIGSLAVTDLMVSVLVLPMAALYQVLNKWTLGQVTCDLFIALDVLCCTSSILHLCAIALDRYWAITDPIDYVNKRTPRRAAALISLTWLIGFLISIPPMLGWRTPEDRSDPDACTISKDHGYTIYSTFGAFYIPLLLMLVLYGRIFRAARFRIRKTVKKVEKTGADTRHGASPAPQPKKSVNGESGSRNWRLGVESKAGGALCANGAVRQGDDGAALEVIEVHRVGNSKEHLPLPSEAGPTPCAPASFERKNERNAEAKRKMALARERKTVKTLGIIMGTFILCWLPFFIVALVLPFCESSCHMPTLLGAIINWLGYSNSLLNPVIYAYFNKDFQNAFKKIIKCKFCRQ

HTR1A (5-HT1A) [3] = target: T3, HTR1A (5-HT1A); experiment: EFC-based cAMP secondary messenger assay, antagonist mode; format: cell-based
OPRD1 [4] = target: T4, OPRD1 (Homo sapiens, UniProt P41143); experiment: EFC-based cAMP secondary messenger assay, agonist mode; format: cell-based
OPRD1 [5] = target: T4, OPRD1; experiment: EFC-based cAMP secondary messenger assay, antagonist mode; format: cell-based
SERT = SERT (Homo sapiens, UniProt P31645); experiment: cell-based; settings: transporter, BL (blocker)
NMDAR = NMDAR (Homo sapiens, UniProt Q05586+Q13224); experiment: Ion channel assay (FLIPR membrane potential), opener; format: cell-based
[6] = oral, 3 mg/kg, 3 mg/kg oral C(I), Mean ± SD, read-out: Plasma concentration of C(I)
[7] = oral, 3 mg/kg, 3 mg/kg oral C(I), per animal, BLQ <0.5 ng/mL, read-out: Plasma concentration of C(I)
[8] = oral, 10 mg/kg, 10 mg/kg oral C(I), Mean ± SD, read-out: Plasma concentration of C(I)
[9] = oral, 10 mg/kg, 10 mg/kg oral C(I), per animal, BLQ <0.5 ng/mL, read-out: Plasma concentration of C(I)
[10] = 1 mg/kg, 1 mg/kg oral C(I), Mean ± SD
[11] = 3 mg/kg, 3 mg/kg oral C(I), Mean ± SD
[12] = 3 mg/kg, 3 mg/kg oral C(I), mean (n = 1)
[13] = 3 mg/kg, 3 mg/kg oral C(I), per animal
[14] = 10 mg/kg, 10 mg/kg oral C(I), Mean ± SD
[15] = 10 mg/kg, 10 mg/kg oral C(I), mean (n = 2)
[16] = 10 mg/kg, 10 mg/kg oral C(I), per animal

T4 sequence (P41143 whole entry): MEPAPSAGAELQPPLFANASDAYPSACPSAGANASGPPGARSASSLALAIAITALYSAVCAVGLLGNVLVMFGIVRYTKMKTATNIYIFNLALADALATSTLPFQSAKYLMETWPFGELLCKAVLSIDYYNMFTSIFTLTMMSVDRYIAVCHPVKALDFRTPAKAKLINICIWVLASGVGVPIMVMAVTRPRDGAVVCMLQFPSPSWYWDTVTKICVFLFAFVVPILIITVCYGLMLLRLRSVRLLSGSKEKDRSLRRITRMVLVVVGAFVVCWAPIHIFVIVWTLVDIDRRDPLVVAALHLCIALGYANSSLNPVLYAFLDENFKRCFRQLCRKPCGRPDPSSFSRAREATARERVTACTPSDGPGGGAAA
Sequence of SERT (P31645 whole entry): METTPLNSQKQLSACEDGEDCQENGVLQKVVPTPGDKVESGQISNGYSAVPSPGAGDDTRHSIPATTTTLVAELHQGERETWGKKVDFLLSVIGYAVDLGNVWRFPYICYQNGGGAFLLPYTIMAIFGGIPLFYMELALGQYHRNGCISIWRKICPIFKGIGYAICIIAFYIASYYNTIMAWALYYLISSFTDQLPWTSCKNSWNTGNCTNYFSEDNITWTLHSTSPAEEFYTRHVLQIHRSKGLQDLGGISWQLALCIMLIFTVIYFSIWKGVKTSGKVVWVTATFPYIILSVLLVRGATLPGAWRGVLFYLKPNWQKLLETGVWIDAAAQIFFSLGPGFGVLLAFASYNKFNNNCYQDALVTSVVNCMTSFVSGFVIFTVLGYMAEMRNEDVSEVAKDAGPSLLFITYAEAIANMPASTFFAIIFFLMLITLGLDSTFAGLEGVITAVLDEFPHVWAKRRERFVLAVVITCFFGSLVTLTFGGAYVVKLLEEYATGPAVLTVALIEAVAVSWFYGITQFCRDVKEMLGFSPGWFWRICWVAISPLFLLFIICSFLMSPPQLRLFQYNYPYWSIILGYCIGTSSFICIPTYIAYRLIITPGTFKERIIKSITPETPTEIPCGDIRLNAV
Sequence of NMDAR (Q13224 27-1484, other chains not shown): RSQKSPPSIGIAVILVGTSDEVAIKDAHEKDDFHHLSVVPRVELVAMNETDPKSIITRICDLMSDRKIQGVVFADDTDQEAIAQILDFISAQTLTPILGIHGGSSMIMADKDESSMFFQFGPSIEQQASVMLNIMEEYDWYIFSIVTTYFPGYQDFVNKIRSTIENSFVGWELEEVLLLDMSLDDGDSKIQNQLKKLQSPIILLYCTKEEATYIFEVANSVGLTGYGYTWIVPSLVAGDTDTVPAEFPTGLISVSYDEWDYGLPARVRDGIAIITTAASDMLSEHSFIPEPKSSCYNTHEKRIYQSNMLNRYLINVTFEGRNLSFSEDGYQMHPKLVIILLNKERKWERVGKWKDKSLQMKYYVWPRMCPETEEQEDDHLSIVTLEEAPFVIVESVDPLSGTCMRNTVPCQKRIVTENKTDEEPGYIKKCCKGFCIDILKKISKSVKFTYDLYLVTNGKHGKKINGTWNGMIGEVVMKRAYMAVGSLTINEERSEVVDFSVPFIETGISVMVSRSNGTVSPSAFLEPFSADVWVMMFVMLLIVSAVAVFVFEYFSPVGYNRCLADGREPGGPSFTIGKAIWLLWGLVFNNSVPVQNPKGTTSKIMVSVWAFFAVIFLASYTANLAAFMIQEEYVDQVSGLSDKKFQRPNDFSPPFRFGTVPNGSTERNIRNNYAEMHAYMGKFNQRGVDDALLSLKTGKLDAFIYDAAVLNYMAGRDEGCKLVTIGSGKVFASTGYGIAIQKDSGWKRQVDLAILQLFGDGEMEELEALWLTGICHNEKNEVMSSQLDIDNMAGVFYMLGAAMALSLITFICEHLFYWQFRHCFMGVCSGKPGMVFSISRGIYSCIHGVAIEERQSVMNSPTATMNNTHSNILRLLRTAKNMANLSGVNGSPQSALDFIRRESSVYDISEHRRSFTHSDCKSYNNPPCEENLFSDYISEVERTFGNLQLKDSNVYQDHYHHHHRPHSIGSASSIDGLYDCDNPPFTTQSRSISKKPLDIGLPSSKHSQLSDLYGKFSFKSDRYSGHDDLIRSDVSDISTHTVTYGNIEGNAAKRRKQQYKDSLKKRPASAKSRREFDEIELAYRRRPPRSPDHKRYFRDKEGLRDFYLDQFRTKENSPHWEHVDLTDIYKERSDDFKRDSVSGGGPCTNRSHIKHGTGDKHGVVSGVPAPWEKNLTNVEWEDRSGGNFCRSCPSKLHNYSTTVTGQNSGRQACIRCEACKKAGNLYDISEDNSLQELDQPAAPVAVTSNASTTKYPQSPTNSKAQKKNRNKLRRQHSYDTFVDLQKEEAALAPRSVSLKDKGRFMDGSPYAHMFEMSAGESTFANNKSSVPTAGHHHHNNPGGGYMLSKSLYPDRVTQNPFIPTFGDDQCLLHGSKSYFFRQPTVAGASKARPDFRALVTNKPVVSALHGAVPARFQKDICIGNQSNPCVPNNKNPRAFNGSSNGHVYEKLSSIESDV
Sequence of DRD2S (P14416 1-414 isoform P14416-2): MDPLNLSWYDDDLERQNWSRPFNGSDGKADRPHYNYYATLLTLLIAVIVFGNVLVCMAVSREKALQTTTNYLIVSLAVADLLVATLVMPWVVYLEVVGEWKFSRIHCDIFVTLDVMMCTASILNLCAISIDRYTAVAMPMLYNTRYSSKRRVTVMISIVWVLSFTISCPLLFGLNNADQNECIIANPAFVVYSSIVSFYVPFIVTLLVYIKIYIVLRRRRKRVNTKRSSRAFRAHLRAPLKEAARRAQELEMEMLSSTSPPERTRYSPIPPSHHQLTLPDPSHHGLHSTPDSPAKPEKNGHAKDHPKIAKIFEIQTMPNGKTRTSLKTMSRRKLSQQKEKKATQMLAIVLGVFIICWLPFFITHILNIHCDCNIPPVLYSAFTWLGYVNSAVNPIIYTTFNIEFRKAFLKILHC
Sequence of CNR1 (P21554 whole entry): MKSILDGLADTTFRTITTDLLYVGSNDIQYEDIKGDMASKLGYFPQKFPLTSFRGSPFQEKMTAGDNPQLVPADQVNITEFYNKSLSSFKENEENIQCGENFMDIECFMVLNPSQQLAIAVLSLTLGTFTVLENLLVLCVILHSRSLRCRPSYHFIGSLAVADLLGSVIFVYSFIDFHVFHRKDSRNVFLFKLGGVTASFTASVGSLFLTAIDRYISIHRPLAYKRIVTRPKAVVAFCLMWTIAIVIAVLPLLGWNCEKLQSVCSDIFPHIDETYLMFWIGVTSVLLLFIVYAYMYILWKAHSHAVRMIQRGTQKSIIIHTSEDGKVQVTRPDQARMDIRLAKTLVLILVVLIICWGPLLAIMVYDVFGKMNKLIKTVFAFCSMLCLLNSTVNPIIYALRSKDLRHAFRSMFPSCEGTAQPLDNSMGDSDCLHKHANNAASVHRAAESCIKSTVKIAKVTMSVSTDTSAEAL

CN(C)CCc1c[nH]c2cccc(OC(=O)c3ccc(Br)cc3)c12 [C(I)] showed a concentration at 4 h ([1]; oral, 1 mg/kg, 1 mg/kg oral C(I), per animal, BLQ <0.5 ng/mL, read-out: Plasma concentration of C(I)) of 0.352 ng/mL, a concentration at 0.25 h [1, 6] of 2.03 ± 0.37 ng/mL and a concentration at 0.25 h [1, 7] of 1.62 ng/mL. It also gave a concentration at 0.5 h [1, 6] of 2.03 ± 0.112 ng/mL, a concentration at 0.5 h [1, 7] of 1.95 ng/mL and a concentration at 1 h [1, 6] of 1.54 ± 0.206 ng/mL. It also gave a concentration at 1 h [1, 7] of 1.74 ng/mL, a concentration at 2 h [1, 6] of 0.786 ± 0.127 ng/mL and a concentration at 2 h [1, 7] of 0.932 ng/mL. For the same compound, the concentration at 4 h [1, 6] was 0.907 ± 0.357 ng/mL, the concentration at 6 h [1, 6] was 0.31 ± 0.0605 ng/mL and the concentration at 6 h [1, 7] was 0.371 ng/mL. For the same compound, the concentration at 0.25 h [1, 8] was 5.67 ± 1.77 ng/mL, the concentration at 0.25 h [1, 9] was 7.2 ng/mL and the concentration at 0.5 h [1, 8] was 8.14 ± 2.42 ng/mL. It also gave a concentration at 0.5 h [1, 9] of 6.41 ng/mL, a concentration at 1 h [1, 8] of 5.51 ± 1.85 ng/mL and a concentration at 1 h [1, 9] of 3.79 ng/mL. It also gave a concentration at 2 h [1, 8] of 2.59 ± 1.17 ng/mL, a concentration at 4 h [1, 8] of 2.26 ± 0.673 ng/mL and a concentration at 4 h [1, 9] of 1.71 ng/mL. For the same compound, the concentration at 6 h [1, 8] was 0.89 ± 0.265 ng/mL, the concentration at 6 h [1, 9] was 0.83 ng/mL and the concentration at 8 h ([1]; oral, 10 mg/kg, 10 mg/kg oral C(I), 8 h, Mean ± SD, read-out: Plasma concentration of C(I)) was 0.545 ± 0.481 ng/mL. It also gave an AUC(0-t) [1, 10] of 1.34 ± 1.02 ng·h/mL, a Cmax [1, 10] of 0.877 ± 0.376 ng/mL and a Tmax [1, 10] of 0.5 h. For the same compound, the Tmax ([1]; 1 mg/kg, 1 mg/kg oral C(I), per animal) was 0.5 h, the AUC(0-t) [1, 11] was 5.54 ± 0.33 ng·h/mL and the Cmax [1, 11] was 2.15 ± 0.195 ng/mL. For the same compound, the Tmax [1, 11] was 0.417 ± 0.144 h, the AUC(0-inf) [1, 12] was 6.87 ng·h/mL and the half-life [1, 12] was 3.01 h. It also gave an MRT inf [1, 12] of 4.12 h, a half-life ([1]; 3 mg/kg, 3 mg/kg oral C(I), per animal, M43 estimate may not be accurate) of 3.01 h and an AUC(0-inf) [1, 13] of 6.87 ng·h/mL. The AUC(0-t) [1, 13] was 5.26 ng·h/mL, the Cmax [1, 13] was 1.95 ng/mL and the MRT inf [1, 13] was 4.12 h. It also gave a Tmax [1, 13] of 0.5 h, an AUC(0-t) [1, 14] of 18.7 ± 4.25 ng·h/mL and a Cmax [1, 14] of 8.4 ± 2.17 ng/mL. The Tmax [1, 14] was 0.417 ± 0.144 h, the AUC(0-inf) [1, 15] was 20.2 ng·h/mL and the half-life [1, 15] was 1.31 h. The MRT inf [1, 15] was 2.53 h, the AUC(0-inf) [1, 16] was 16.3 ng·h/mL and the AUC(0-t) [1, 16] was 15.8 ng·h/mL. It also gave a half-life [1, 16] of 1.45 h, a Cmax [1, 16] of 7.2 ng/mL and an MRT inf [1, 16] of 2.66 h. For the same compound, the Tmax [1, 16] was 0.25 h, the IC50 (ADRA1A) was 6.59 µM and the IC50 (CHRM1) was 22.9 µM. The EC50 (CNR1) was 54.2 µM, the IC50 (DRD2S) was 91.1 µM and the EC50 (HTR1A (5-HT1A) [2]) was over 100 µM. It also gave an IC50 (HTR1A (5-HT1A) [3]) of over 100 µM, an EC50 (OPRD1 [4]) of over 100 µM and an IC50 (OPRD1 [5]) of over 100 µM. It also gave an IC50 (SERT) of over 100 µM and an EC50 (NMDAR) of over 100 µM.
